Data on four molecules can be found in patent US9145376B2, “Quinazolinone inhibitors of dynein” (The Rockefeller University, priority 2011, dated 2015).

Experiment [1] concerns the target T1, cytoplasmic dynein purified from bovine brain (Bos taurus, UniProt A0A3Q1NEU9).
T1 construct: Cytoplasmic dynein was purified from bovine brain tissue; from tissue; host or cells: bovine brain
Put plainly: Microtubule surface gliding assay, dynein. The following applies: for dynein-dependent microtubule movement (gliding velocity): 100 μM; for IC50: dynein-dependent microtubule gliding in vitro, read-out: IC50 of microtubule gliding inhibition. The format is biochemical. As for the experimental part: To more directly examine whether cytoplasmic dynein is the direct target of the ciliobrevins, we evaluated their effects on dynein-dependent microtubule gliding in vitro. Cytoplasmic dynein was purified from bovine brain tissue, adsorbed onto glass slides, and then incubated with fluorescently labeled microtubules and ATP in the presence or absence of these compounds. We then imaged and quantified the resulting microtubule gliding velocities by epifluorescence microscopy.
Cytoplasmic dynein was purified from bovine brains as described by Bingham et al. [Methods Enzymol. 298, 171 (1998)]. K560, a 560-amino acid N-terminal fragment of human conventional kinesin (kinesin-1) with a C-terminal His-tag, was expressed in bacteria and purified as described by Woehlke et al., [Cell 90, 207 (1997)]. Motility assays were performed on a Zeiss Axiovert 200M wide-field microscope equipped with a Zeiss 100×/1.45 NA α-Plan-Fluar objective. Data were captured with an EM-CCD camera (iXon DU-897, Andor Technology) with a 0.3-second exposure time and frame rate of 0.5 second^−1. Microtubule gliding assays were performed as described by Kapoor and Mitchison [Proc. Natl. Acad. Sci. U.S.A. 96, 9106 (1999)] with some modifications. An approximately 6 μL flow chamber was filled with motor protein (100 μg/mL dynein or 50 μg/mL K560) in motor dilution buffer (80 mM Pipes, 1 mM EGTA, 2 mM MgCl2, 2 mM DTT, 50 μM ATP, pH 6.8 with KOH). After a 2-minute incubation, excess protein was washed out with […] of PEM80 buffer (80 mM Pipes, 1 mM EGTA, 2 mM MgCl2, pH 6.8 with KOH) and the surface was blocked against non-specific microtubule binding by filling the chamber with blocking protein (0.5 mg/mL α-casein for dynein experiments and 1 mg/mL BSA for K560 experiments) in motor dilution buffer. After 2 minutes the chamber was perfused with 18 μL of reaction mix (PEM80, 40 mM KCl, blocking protein [1 mg/mL a-casein for dynein experiments; 1 mg/mL BSA for K560 experiments], 2 mM MgATP, 20 μM taxol, 0.1 μM rhodamine-labeled microtubules, oxygen depletion system [4 mM DTT, 2 mM glucose, 40 μg/mL glucose oxidase, 35 μg/mL catalase], 2.5% DMSO, and test compounds as appropriate). The flow chamber was then sealed with valap. After allowing the microtubules to bind to the surface for 5 minutes, the gliding microtubules were visualized by time-lapse fluorescence microscopy. Velocities were measured by kymography using Metamorph software (Molecular Devices), and the velocity for each microtubule was determined from the total distance during the time observed.
For washout experiments, the chamber was left unsealed after the initial reaction mix containing inhibitor was added. Microtubules were allowed to bind to the surface for 5 minutes, and then a time-lapse movie was acquired. The inhibitor was then washed out of the chamber by flowing in 20 μL of fresh reaction mix (PEM80, 40 mM KCl, 1 mg/mL α-casein, 2 mM MgATP, 20 μM taxol, oxygen depletion system, and 2.5% DMSO) without additional microtubules or inhibitor. The chamber was sealed, and additional time-lapse movies were acquired.

Experiment [2] relates to primary cilia of Shh-EGFP cells. Nature of the experiment: Quantitative assessment of ciliogenesis (Arl13b staining, cilia size). The format is cell-based. As to conditions: 24 hours, read-out: Primary cilia size (percent of DMSO control at a 30 μM dose). As to the method:
Shh-EGFP cells [J. Hyman et al., Proc. Natl. Acad. Sci. U.S.A., (2009)], an NIH-3T3-based cell line containing a stably integrated Gli-responsive enhanced green fluorescent protein reporter, were maintained in DMEM containing 10% calf serum, 100 U/mL penicillin, and 0.1 mg/mL streptomycin. The cells were seeded into 24-well plates containing poly-D-lysine-coated 12-mm glass coverslips at a density of 30,000 cells/well and cultured for 36 hours. The cells were transferred into DMEM containing 0.5% calf serum, the antibiotics described above, and either individual compounds at a 30 μM concentration or 0.3% DMSO. After being cultured for another 24 hours, the cells were fixed in PBS containing 4% paraformaldehyde for 10 minutes at room temperature, washed 3×5 minutes with PBS, permeabilized with PBS containing 0.3% Triton X-100 for 5 minutes, and blocked overnight at 4° C. with PBS containing 5% normal goat serum, 0.1% Triton X-100, and 0.05% sodium azide. The coverslips were then incubated for 90 minutes at room temperature with blocking buffer containing rabbit polyclonal anti-Arl 13b antibody (1:3000 dilution), washed 4×5 minutes with PBS containing 0.1% Triton X-100, and incubated for 60 minutes with blocking buffer containing Alexa Fluor 488-conjugated goat polyclonal anti-rabbit IgG antibody (1:300 dilution; Invitrogen, A-11034). Following this secondary antibody incubation, nuclei were stained by incubating the cells 2×10 minutes with PBS containing 0.1% Triton X-100 and […] 4′,6-diamidino-2-phenylindole (DAPI) and washing them 2×5 minutes with PBS. The coverslips were subsequently mounted onto slides using Prolong Gold Antifade Reagent (Invitrogen) and imaged using an HC Plan Apochromat CS 20×/0.70 NA oil immersion objective on a Leica DMI6000B compound microscope equipped with a Photometric CoolSNAP HQ CCD camera and Metamorph software (Molecular Devices). Images of Arl13b staining in DMSO-treated cells were manually examined to establish a minimum threshold value for cilia staining intensity. ImageJ software was then used to define objects consisting of two or more adjacent pixels with a signal intensity equal to or greater than this threshold value, and the total object area within an individual image was used to estimate the total pixel area of primary cilia. Corresponding images of DAPI staining were processed in parallel using CellProfiler software to establish the number of nuclei per image. The average cilia size per cell within an individual image was then determined by dividing the total ciliary pixel area by the number of nuclei. Ten individual images, each containing approximately 150 cells. were used to quantify the average cilia size for each experimental condition.
Shh-EGFP cells, an NIH-3T3-based cell line containing a stably integrated Gli-responsive enhanced green fluorescent protein reporter, were maintained in DMEM containing 10% (v/v) calf serum, 100 U/mL penicillin, and 0.1 mg/mL streptomycin. The cells were seeded into 24-well plates containing poly-D-lysine-coated 12-mm glass coverslips at a density of 30,000 cells/well and cultured for 36 hours. The cells were transferred into DMEM containing 0.5% (v/v) calf serum, the antibiotics described above, and either individual dihydroquinazolinones at a 30 μM concentration or an equivalent amount of DMSO vehicle (0.3%, v/v). After being cultured for another 24 hours, the cells were fixed in PBS containing 4% (w/v) paraformaldehyde for 10 min at room temperature, washed 3×5 min with PBS, permeabilized with PBS containing 0.3% (v/v) Triton X-100 for 5 min, and blocked overnight at 4° C. with PBS containing 5% (v/v) normal goat serum, 0.1% (v/v) Triton X-100, and 0.05% (w/v) sodium azide. […]

T1 sequence (A0A3Q1NEU9 1-4657): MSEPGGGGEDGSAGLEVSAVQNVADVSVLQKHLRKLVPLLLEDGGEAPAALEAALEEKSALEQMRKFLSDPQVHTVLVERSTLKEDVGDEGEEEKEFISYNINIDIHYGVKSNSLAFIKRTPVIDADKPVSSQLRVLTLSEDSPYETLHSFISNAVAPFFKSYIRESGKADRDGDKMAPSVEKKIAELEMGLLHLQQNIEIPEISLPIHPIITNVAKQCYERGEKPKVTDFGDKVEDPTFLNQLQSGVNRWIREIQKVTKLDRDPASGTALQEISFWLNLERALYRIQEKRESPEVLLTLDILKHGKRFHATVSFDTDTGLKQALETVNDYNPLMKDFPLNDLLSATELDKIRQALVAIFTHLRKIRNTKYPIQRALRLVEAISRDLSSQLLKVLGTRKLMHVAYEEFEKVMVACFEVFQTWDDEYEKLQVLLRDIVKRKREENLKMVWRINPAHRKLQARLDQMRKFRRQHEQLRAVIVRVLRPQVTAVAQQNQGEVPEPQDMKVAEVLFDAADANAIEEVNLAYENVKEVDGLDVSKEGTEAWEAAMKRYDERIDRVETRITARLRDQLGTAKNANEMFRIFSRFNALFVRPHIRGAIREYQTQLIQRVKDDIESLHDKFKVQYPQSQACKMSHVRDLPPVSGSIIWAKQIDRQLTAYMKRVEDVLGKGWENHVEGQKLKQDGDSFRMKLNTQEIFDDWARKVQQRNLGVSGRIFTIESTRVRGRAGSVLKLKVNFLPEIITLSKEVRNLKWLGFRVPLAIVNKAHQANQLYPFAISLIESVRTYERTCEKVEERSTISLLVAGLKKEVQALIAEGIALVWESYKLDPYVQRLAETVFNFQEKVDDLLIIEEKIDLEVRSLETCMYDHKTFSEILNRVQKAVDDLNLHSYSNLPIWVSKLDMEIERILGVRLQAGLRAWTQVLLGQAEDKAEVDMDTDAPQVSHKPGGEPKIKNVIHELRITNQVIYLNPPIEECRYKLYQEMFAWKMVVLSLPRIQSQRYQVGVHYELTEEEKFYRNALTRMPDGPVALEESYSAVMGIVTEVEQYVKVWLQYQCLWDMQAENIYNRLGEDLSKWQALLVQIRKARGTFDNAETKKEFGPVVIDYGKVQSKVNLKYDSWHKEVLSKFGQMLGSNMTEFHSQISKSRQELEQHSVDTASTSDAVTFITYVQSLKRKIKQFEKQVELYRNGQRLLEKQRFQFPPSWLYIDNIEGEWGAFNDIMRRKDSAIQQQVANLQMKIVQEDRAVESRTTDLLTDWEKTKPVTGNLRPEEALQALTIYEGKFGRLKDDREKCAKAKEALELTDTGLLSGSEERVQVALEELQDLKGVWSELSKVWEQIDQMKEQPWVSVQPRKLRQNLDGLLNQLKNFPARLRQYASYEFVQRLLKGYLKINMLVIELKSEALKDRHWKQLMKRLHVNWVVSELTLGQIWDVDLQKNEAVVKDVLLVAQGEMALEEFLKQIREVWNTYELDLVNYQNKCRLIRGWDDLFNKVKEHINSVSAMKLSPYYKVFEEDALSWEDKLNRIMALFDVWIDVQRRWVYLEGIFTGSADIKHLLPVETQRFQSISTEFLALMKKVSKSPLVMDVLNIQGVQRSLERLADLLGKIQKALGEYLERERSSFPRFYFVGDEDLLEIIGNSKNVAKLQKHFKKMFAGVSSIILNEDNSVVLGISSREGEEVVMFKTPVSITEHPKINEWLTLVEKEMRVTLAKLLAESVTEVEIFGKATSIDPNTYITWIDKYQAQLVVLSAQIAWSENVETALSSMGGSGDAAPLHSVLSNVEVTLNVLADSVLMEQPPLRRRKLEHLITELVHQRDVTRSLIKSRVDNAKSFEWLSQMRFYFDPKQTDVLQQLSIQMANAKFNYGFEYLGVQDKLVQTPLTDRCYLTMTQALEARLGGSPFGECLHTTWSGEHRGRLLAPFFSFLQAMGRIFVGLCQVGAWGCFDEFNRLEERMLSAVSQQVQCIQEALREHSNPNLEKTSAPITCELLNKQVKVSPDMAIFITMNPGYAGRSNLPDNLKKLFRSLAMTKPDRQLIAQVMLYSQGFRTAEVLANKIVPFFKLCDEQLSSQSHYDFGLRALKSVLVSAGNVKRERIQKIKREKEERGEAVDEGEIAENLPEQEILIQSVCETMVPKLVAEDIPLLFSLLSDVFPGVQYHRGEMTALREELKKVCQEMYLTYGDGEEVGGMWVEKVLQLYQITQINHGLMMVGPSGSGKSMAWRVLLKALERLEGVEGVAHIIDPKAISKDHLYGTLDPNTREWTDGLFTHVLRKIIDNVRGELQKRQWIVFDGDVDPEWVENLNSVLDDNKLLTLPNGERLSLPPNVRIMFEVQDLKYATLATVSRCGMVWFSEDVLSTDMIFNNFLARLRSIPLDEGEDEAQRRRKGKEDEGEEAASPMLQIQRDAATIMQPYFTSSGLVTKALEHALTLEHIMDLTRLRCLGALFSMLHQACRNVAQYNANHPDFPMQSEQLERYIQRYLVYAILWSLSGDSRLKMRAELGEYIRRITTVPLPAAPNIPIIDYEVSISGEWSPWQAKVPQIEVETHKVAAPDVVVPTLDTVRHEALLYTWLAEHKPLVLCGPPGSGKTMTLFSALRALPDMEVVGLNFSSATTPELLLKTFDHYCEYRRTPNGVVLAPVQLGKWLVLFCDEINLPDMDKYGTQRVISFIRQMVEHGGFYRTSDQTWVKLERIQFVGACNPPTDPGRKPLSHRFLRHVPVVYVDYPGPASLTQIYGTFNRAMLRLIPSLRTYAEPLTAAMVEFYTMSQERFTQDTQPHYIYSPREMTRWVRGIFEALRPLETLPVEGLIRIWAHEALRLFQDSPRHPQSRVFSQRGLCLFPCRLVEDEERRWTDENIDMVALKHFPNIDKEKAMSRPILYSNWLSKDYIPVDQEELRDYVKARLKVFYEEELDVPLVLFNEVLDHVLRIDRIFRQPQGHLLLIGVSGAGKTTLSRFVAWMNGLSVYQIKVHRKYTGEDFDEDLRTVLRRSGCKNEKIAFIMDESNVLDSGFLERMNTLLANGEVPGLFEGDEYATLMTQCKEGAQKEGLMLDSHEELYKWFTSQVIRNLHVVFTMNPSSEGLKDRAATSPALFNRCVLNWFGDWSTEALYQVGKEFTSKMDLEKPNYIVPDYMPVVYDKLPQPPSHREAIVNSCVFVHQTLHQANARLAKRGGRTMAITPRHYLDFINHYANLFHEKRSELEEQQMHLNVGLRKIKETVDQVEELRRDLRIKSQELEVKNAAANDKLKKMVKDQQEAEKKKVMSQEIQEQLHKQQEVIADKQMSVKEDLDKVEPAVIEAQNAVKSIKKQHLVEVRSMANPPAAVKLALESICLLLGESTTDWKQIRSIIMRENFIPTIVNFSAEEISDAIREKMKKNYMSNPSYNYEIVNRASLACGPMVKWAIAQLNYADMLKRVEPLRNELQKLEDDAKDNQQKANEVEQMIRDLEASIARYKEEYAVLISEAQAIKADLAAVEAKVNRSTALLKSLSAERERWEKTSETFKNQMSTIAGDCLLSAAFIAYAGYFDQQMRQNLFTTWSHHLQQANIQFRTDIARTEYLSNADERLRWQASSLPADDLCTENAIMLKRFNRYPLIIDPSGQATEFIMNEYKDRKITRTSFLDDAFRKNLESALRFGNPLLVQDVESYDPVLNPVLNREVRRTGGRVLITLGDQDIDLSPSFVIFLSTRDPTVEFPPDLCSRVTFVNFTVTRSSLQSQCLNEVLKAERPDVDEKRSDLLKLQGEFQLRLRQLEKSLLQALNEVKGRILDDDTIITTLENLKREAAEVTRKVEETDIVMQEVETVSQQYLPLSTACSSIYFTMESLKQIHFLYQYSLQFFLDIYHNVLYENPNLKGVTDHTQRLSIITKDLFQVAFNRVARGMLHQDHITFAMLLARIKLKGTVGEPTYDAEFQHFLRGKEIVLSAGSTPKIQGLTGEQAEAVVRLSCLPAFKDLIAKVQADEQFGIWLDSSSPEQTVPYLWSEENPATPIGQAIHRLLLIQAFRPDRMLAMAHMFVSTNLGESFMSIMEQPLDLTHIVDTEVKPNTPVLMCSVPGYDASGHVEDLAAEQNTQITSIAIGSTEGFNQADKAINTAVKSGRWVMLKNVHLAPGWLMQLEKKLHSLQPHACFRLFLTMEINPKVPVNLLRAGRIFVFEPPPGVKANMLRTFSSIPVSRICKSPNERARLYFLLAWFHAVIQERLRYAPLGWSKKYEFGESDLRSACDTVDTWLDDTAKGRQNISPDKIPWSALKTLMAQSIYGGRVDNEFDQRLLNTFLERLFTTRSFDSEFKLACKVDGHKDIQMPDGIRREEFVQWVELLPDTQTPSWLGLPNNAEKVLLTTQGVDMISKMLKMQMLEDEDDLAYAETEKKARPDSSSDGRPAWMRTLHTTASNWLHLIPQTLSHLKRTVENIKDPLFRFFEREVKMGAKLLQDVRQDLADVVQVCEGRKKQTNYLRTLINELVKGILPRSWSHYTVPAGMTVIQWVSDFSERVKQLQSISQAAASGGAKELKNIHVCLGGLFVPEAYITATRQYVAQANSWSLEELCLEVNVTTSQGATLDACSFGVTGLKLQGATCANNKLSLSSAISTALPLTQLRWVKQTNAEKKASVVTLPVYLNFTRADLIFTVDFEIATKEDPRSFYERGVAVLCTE

As for `N#C/C(C(=O)c1ccc(Cl)cc1Cl)=C1\NC(=O)c2ccccc2N1` [Example 1, 3-(2,4-dichlorophenyl)-3-oxo-2-(4-oxo-3,4-dihydroquinazolin-2(1H)-ylidene)propanenitrile], in experiment [1], the “dynein-dependent microtubule movement (gliding velocity)” value (shortened to “dynein-dependent microtubule movement”) is recorded as “at least five-fold” and the IC50 was 30 µM. Moreover, in experiment [2], the activity at 30 µM was 27%.

In the case of `N#C/C(C(=O)c1ccc(Cl)cc1)=C1\NC(=O)c2ccccc2N1` [Example 2, 3-(4-chlorophenyl)-3-oxo-2-(4-oxo-3,4-dihydroquinazolin-2(1H)-ylidene)propanenitrile], in experiment [1], the “dynein-dependent microtubule movement” value was “minimal effects”. For the same molecule, the activity at 30 µM in experiment [2] turned out to be 74%.

For `N#C/C(C(=O)c1ccccc1)=C1\NC(=O)c2ccccc2N1` [Example 16, 3-oxo-2-(4-oxo-3,4-dihydroquinazolin-2(1H)-ylidene)-3-phenylpropanenitrile], the “dynein-dependent microtubule movement” value in experiment [1] is “minimal effects”. The activity at 30 µM in experiment [2] was 95%.

Regarding `N#C/C(C(=O)c1ccc(Cl)cc1Cl)=C1\NC(=O)c2ccc(Cl)cc2N1` [Example 31, 2-(7-chloro-4-oxo-3,4-dihydroquinazolin-2(1H)-ylidene)-3-(2,4-dichlorophenyl)-3-oxo-propanenitrile], in experiment [1], the “dynein-dependent microtubule movement” value is “at least five-fold” and the IC50 turned out to be 40 µM. Besides, the activity at 30 µM in experiment [2] is 7%.
